The data set relates to CCRIS mutagenicity, Ames/micronucleus/aberration tests. The data set can be described thus: CCRIS mutagenicity studies.
Setting [1] is: Test System: AMES SALMONELLA TYPHIMURIUM, Strain/Indicator: TA98, Metabolic Activation: HAMSTER, LIVER, S-9, AROCLOR 1254, Method: STANDARD PLATE.
Where [2] appears, read: Test System: AMES SALMONELLA TYPHIMURIUM, Strain/Indicator: TA98, Metabolic Activation: NONE, Method: STANDARD PLATE.
Setting [3] is: Test System: AMES SALMONELLA TYPHIMURIUM, Strain/Indicator: TA98, Metabolic Activation: RAT, LIVER, S-9, AROCLOR 1254, Method: STANDARD PLATE.
[4] abbreviates: Test System: AMES SALMONELLA TYPHIMURIUM, Strain/Indicator: TA100, Metabolic Activation: HAMSTER, LIVER, S-9, AROCLOR 1254, Method: STANDARD PLATE.
The mark [5] stands for this setting: Test System: AMES SALMONELLA TYPHIMURIUM, Strain/Indicator: TA100, Metabolic Activation: NONE, Method: STANDARD PLATE.
Setting [6] is: Test System: AMES SALMONELLA TYPHIMURIUM, Strain/Indicator: TA100, Metabolic Activation: RAT, LIVER, S-9, AROCLOR 1254, Method: STANDARD PLATE.
[7] abbreviates: Test System: AMES SALMONELLA TYPHIMURIUM, Strain/Indicator: TA1535, Metabolic Activation: HAMSTER, LIVER, S-9, AROCLOR 1254, Method: STANDARD PLATE.
Where [8] appears, read: Test System: AMES SALMONELLA TYPHIMURIUM, Strain/Indicator: TA1535, Metabolic Activation: NONE, Method: STANDARD PLATE.
The mark [9] stands for this setting: Test System: AMES SALMONELLA TYPHIMURIUM, Strain/Indicator: TA1535, Metabolic Activation: RAT, LIVER, S-9, AROCLOR 1254, Method: STANDARD PLATE.
The mark [10] stands for this setting: Test System: AMES SALMONELLA TYPHIMURIUM, Strain/Indicator: TA1537, Metabolic Activation: HAMSTER, LIVER, S-9, AROCLOR 1254, Method: STANDARD PLATE.
[11] abbreviates: Test System: AMES SALMONELLA TYPHIMURIUM, Strain/Indicator: TA1537, Metabolic Activation: NONE, Method: STANDARD PLATE.
Where [12] appears, read: Test System: AMES SALMONELLA TYPHIMURIUM, Strain/Indicator: TA1538, Metabolic Activation: HAMSTER, LIVER, S-9, AROCLOR 1254, Method: STANDARD PLATE.
[13] abbreviates: Test System: AMES SALMONELLA TYPHIMURIUM, Strain/Indicator: TA1538, Metabolic Activation: NONE, Method: STANDARD PLATE.
Where [14] appears, read: Test System: AMES SALMONELLA TYPHIMURIUM, Strain/Indicator: TA1538, Metabolic Activation: RAT, LIVER, S-9, AROCLOR 1254, Method: STANDARD PLATE.
The mark [15] stands for this setting: Test System: MOUSE LYMPHOMA, Strain/Indicator: L5178Y (TK+/TK-), Metabolic Activation: NONE, Method: SUSPENSION/PLATE.
Setting [16] is: Test System: MOUSE LYMPHOMA, Strain/Indicator: L5178Y (TK+/TK-), Metabolic Activation: RAT, LIVER, S-9, AROCLOR 1254, Method: SUSPENSION/PLATE.

Active and inactive are the calls of the source. No rule for the calls is given here.

As for `O=c1[nH]c2ccccc2o1`, the mutagenic call runs as follows: under setting [1], “inactive; negative”; under setting [2], “inactive; negative”; under setting [3], “inactive; negative”; under setting [4], “inactive; negative”; under setting [5], “inactive; negative”; under setting [6], “inactive; negative”. In addition, the mutagenic call is, setting by setting: under setting [7], “inactive; negative”; under setting [8], “inactive; negative”; under setting [9], “inactive; negative”; under setting [10], “inactive; negative”; under setting [11], “inactive; negative”; (Test System: AMES SALMONELLA TYPHIMURIUM, Strain/Indicator: TA1537, Metabolic Activation: RAT, LIVER, S-9, AROCLOR 1254, Method: STANDARD PLATE) “inactive; negative”. Further, the mutagenic call is, setting by setting: under setting [12], “inactive; negative”; under setting [13], “inactive; negative”; under setting [14], “inactive; negative”; under setting [15], “active; positive. reevaluation of results: equivocal”; under setting [16], “inactive; negative. reevaluation of results: negative”.

Turning to `CC12OOC1(C)c1ccccc1O2` (stereo not given), the mutagenic call reads like this: (Test System: AMES SALMONELLA TYPHIMURIUM, Strain/Indicator: TA100, Metabolic Activation: NONE, Method: PREINCUBATION) “active; positive”; (Test System: AMES SALMONELLA TYPHIMURIUM, Strain/Indicator: TA2638, Metabolic Activation: NONE, Method: PREINCUBATION) “inactive; negative”.

`Nc1ccc(/C=C/c2ccc(N)cc2)cc1`: the mutagenic call was “inactive; negative” (Test System: AMES SALMONELLA TYPHIMURIUM, Strain/Indicator: TA98(1,8-DNP6), Metabolic Activation: NONE, Method: STANDARD PLATE); “inactive; negative” (Test System: AMES SALMONELLA TYPHIMURIUM, Strain/Indicator: TA98(1,8-DNP6), Metabolic Activation: S-9, Method: STANDARD PLATE); “inactive; negative” under setting [2]; “active; positive” under setting [3]; “active; positive” (Test System: AMES SALMONELLA TYPHIMURIUM, Strain/Indicator: TA98, Metabolic Activation: S-9, Method: STANDARD PLATE); “inactive; negative” under setting [5]. Further, the mutagenic call under setting [6] is “inactive; negative” and the mutagenic call (Test System: AMES SALMONELLA TYPHIMURIUM, Strain/Indicator: TA100, Metabolic Activation: S-9, Method: STANDARD PLATE) is “inactive; negative”.

As for `CCCC(O)C(CC)CO` (stereo not given), the mutagenic call is, setting by setting: under setting [1], “inactive; negative”; under setting [2], “inactive; negative”; under setting [3], “inactive; negative”; under setting [4], “inactive; negative”; under setting [5], “inactive; negative”; under setting [6], “inactive; negative”. Moreover, the mutagenic call is, setting by setting: under setting [7], “inactive; negative”; under setting [8], “inactive; negative”; under setting [9], “inactive; negative”; under setting [10], “inactive; negative”; under setting [11], “inactive; negative”; under setting [12], “inactive; negative”. Further, the mutagenic call reads like this: under setting [13], “inactive; negative”; under setting [14], “inactive; negative”; under setting [15], “inactive; positive. reevaluation of results: negative”; under setting [16], “inactive; negative. reevaluation of results: negative”.

Regarding `CC12CCC(CC1)C(C)(C)O2`, the mutagenic call runs as follows: (End Point: IN VITRO CHROMOSOMAL ABERRATIONS, Test System: CHINESE HAMSTER OVARY CELLS, Metabolic Activation: NONE) “inactive; negative; precipitation occurred at 663 ug/ml”; (End Point: IN VITRO CHROMOSOMAL ABERRATIONS, Test System: CHINESE HAMSTER OVARY CELLS, Metabolic Activation: RAT, LIVER, S-9, AROCLOR 1254) “inactive; negative; precipitation occurred at all doses”; (Test System: AMES SALMONELLA TYPHIMURIUM, Strain/Indicator: TA97A, Metabolic Activation: NONE, Method: STANDARD PLATE) “inactive; negative”; (Test System: AMES SALMONELLA TYPHIMURIUM, Strain/Indicator: TA97A, Metabolic Activation: RAT LIVER S-9, AROCLOR 1254, Method: STANDARD PLATE) “inactive; negative”; under setting [2], “inactive; negative”; (Test System: AMES SALMONELLA TYPHIMURIUM, Strain/Indicator: TA98, Metabolic Activation: RAT LIVER S-9, AROCLOR 1254, Method: STANDARD PLATE) “inactive; negative”. In addition, the mutagenic call under setting [5] is “inactive; negative”; the mutagenic call (Test System: AMES SALMONELLA TYPHIMURIUM, Strain/Indicator: TA100, Metabolic Activation: RAT LIVER S-9, AROCLOR 1254, Method: STANDARD PLATE) was “inactive; negative”; the mutagenic call (Test System: AMES SALMONELLA TYPHIMURIUM, Strain/Indicator: TA102, Metabolic Activation: NONE, Method: STANDARD PLATE) was “inactive; negative”; the mutagenic call (Test System: AMES SALMONELLA TYPHIMURIUM, Strain/Indicator: TA102, Metabolic Activation: RAT LIVER S-9, AROCLOR 1254, Method: STANDARD PLATE) was “inactive; negative”; the mutagenic call (Test System: E. coli, Strain/Indicator: WP2 IC185 trpE65, Metabolic Activation: None, Method: Plate incorporation) is “inactive; negative”; the mutagenic call (Test System: E. coli, Strain/Indicator: WP2 IC202 trpE65 oxyR/pKM101, Metabolic Activation: None, Method: Plate incorporation) was “inactive; negative”.

On to `O=C=Nc1ccc(Cc2ccccc2N=C=O)cc1`, for which the mutagenic call (Test System: AMES SALMONELLA TYPHIMURIUM, Strain/Indicator: TA100, Metabolic Activation: RAT, LIVER, S-9, AROCLOR 1254 (30%), Method: STANDARD PLATE) was “inactive; negative”.

As to `CN(C)/C=N/c1nnc(/C=C/c2ccc([N+](=O)[O-])o2)o1`, the mutagenic call (Test System: AMES SALMONELLA TYPHIMURIUM, Strain/Indicator: TA100, Metabolic Activation: RAT, LIVER, S-9, KC500 OR PHENOBARBITAL, Method: LIQUID SUSPENSION) is “active; positive”.

For `CN(C)c1ccc(C(=C2C=CC(=[N+](C)C)C=C2)c2c(O)c(S(=O)(=O)[O-])cc3cc(S(=O)(=O)O)ccc23)cc1`, the mutagenic call is “inactive; negative” under setting [2]; “inactive; negative” under setting [3]; “inactive; negative” under setting [5]; “inactive; negative” under setting [6]; “inactive; negative” under setting [8]; “inactive; negative” under setting [9]. Moreover, the mutagenic call reads like this: under setting [13], “inactive; negative”; under setting [14], “inactive; negative”.
